Measured values published in paper PMC10872723 (Journal of medicinal chemistry, 2023).
Like-named read-outs stand apart in the source and are kept apart here.

Assays:
VCB E3 ligase complex = VCB E3 ligase complex (Homo sapiens, UniProt P40337); experiment: Isothermal titration calorimetry; type: binding
[1] = system: WDR5-11–VCB ternary complex; experiment: ITC binding cooperativity, VCB into WDR5-11 binary complex; set-up: species or system human; details: VCB binding to the WDR5-11 binary complex vs VCB into 11
WDR5 [2] = target: T1, WDR5 (Homo sapiens, UniProt P61964); experiment: Western blotting of WDR5 degradation in PDAC cell lines; type: cell-based; details: 18 h; for WDR5 degradation (WB): MIA PaCa-2, BxPC-3, HPAF-II, Panc10.05 and PANC-1 cells, indicated concentrations
MIA PaCa-2 cells = experiment: TMT MS-based global proteomic study in MIA PaCa-2 cells; type: cell-based, human; details: 1.5 μM, 2 h, 4040 quantified proteins, cutoff P value less than 0.01, Log2 fold change greater than 0.5
[3] = system: PDAC cell lines including MIA PaCa-2, BxPC-3, HPAF-II, Panc10.05, and PANC-1; experiment: Antiproliferative activity in PDAC cell lines; type: cell-based, human
Mouse PK study = details: 75 mg/kg
WDR5 [4] = target: T1, WDR5; details: MIA PaCa-2 cells
WDR5 [5] = target: T1, WDR5; experiment: Western blotting of WDR5 protein levels in MV4; details: MV4;11 cells
IKZF1 = IKZF1 (Homo sapiens, UniProt Q13422); experiment: Western blotting of IKZF1 protein levels in MV4; details: MV4;11 cells
Chain of IKZF1 (Q13422 whole entry): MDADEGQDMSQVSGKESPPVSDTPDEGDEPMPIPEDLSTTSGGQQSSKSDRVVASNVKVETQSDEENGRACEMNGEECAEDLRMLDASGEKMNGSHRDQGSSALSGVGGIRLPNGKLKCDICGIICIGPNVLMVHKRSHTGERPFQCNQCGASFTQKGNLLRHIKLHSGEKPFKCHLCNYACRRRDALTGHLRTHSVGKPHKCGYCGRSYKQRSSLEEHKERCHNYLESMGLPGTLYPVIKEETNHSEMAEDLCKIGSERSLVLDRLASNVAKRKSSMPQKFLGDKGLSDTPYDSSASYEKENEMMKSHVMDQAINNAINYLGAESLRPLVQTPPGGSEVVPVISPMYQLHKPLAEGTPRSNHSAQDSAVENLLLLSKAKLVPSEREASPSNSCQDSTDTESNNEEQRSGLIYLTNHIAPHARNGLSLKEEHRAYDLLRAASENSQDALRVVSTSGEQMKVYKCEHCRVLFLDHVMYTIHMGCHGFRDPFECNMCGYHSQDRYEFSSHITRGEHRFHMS

LIMD1 = LIMD1 (Homo sapiens, UniProt Q9UGP4); experiment: Western blotting of LIMD1 protein levels in MV4; details: MV4;11 cells, 0.1 and 0.5 μM, 18 h (Figure 5A)
Chain of LIMD1 (Q9UGP4 whole entry): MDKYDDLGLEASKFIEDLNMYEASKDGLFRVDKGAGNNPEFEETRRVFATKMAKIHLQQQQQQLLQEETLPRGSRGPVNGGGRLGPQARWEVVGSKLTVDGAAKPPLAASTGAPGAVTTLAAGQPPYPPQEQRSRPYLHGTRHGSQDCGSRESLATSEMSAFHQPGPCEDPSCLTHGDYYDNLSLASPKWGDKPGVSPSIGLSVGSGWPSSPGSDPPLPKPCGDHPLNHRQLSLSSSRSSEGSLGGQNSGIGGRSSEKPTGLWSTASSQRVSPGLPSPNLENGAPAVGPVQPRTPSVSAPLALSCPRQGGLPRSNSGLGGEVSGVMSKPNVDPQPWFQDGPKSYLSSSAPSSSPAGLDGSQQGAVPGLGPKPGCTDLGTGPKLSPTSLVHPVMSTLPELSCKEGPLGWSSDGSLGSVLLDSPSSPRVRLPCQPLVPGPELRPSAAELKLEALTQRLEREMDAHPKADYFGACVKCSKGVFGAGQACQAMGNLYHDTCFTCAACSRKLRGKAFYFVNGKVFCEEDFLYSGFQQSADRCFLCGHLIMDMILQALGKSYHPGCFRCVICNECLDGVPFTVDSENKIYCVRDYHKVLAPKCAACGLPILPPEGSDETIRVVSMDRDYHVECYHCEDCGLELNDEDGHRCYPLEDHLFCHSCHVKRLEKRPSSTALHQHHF

WDR5 [6] = target: T1, WDR5; experiment: Isothermal titration calorimetry; type: binding
WDR5 K296R = WDR5 K296R (Homo sapiens, UniProt P61964, K296R); experiment: Immunoblot of WDR5 K296R mutant degradation in HEK293T cells; type: cell-based; details: HEK293T cells overexpressing K296R (Dox), indicated concentrations, 3 days
[7] = system: PDAC cell lines including MIA PaCa-2, BxPC-3, HPAF-II, Panc10.05, and PANC-1; details: previously reported; cited from earlier work
[8] = 0.1 and 0.5 μM, 18 h (Figure 5A)
[9] = indicated concentrations, 18 h (Figure 5C)
[10] = indicated concentrations, 18 h (Figure 5B)

Chain of VCB E3 ligase complex (Q15369 whole entry): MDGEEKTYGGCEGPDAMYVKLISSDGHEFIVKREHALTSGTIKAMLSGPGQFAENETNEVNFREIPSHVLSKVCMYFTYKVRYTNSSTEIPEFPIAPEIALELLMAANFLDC
Chain of VCB E3 ligase complex (Q15370 1-104, further chain): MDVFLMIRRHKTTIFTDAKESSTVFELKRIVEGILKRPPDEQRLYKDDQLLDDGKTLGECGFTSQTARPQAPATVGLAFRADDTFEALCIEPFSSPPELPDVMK
Chain of VCB E3 ligase complex (P40337 54-213): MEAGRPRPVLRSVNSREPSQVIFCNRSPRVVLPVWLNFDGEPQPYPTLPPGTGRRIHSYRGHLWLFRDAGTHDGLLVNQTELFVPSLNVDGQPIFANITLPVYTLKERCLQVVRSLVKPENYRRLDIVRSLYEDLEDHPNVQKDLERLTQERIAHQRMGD

Compound: Cc1ncsc1-c1ccc(CNC(=O)[C@@H]2C[C@@H](O)CN2C(=O)[C@@H](NC(=O)CNC(=O)c2ccc(F)c(-c3ccc(N4C[C@@H](C)N(C)[C@@H](C)C4)c(NC(=O)c4c[nH]c(=O)cc4C(F)(F)F)c3)c2)C(C)(C)C)cc1 [Compound 11, N-(2′-Fluoro-5′-((2-(((S)-1-((2S,4R)-4-hydroxy-2-((4-(4-methylthiazol-5-yl)benzyl)carbamoyl)pyrrolidin-1-yl)-3,3-dimethyl-1-oxobutan-2-yl)amino)-2-oxoethyl)carbamoyl)-4-((3S,5R)-3,4,5-trimethylpiperazin-1-yl)-[1,1′-biphenyl]-3-yl)-6-oxo-4-(trifluoromethyl)-1,6-dihydropyridine-3-carboxamide]
- Kd (VCB E3 ligase complex): 534 ± 48 nM
- Binding cooperativity α = KD (binary)/KD (ternary) [1]: 2.30
- WDR5 degradation (WB) (WDR5 [2]): induced WDR5 degradation in a concentration-dependent manner
- Hook effect in WDR5 degradation (WDR5 [2]; PDAC cells, concentrations up to 50 μM): no “hook effect” observed
- Proteome-wide degradation selectivity (MIA PaCa-2 cells): WDR5 is the only protein whose abundance was significantly decreased
- GI50 ([3]; Homo sapiens, 144 h): 4000 to 32000 nM
- Tmax (Mouse PK study; male, Swiss albino, mouse, plasma, ip): 30 min
- Clinical signs during the PK study (Mouse PK study; mice, single IP injection): no clinical signs were observed
- Plasma concentration maintained for the initial 4 h (Mouse PK study; mice, single IP injection): around 1 μM
- Plasma concentration maintained over 12 h (Mouse PK study; mice, single IP injection): above 100 nM
- Time at which maximal WDR5 degradation achieved (WDR5 [4]; 0.1 μM): 24 h
- Time at which significant WDR5 reduction observed (WDR5 [4]; 0.1 μM): 2 h
- WDR5 protein levels (WB verification for proteomics) (WDR5 [4]; 1.5 μM, 2 h (Figure S5)): significantly reduced WDR5 protein levels
- WDR5 protein levels (WB) (WDR5 [4]; 0.1 and 0.5 μM, 18 h (Figure 3)): effectively decreased the WDR5 protein levels

Compound: CN1CCN(c2ccc(-c3cccc(CN4CCN(CCNC(=O)CCCCCCCNC(=O)COc5cccc6c5C(=O)N(C5CCC(=O)NC5=O)C6=O)CC4)c3)cc2NC(=O)c2c[nH]c(=O)cc2C(F)(F)F)CC1 (centres unmarked) [Compound 21, N-(3′-((4-(2-(8-(2-((2-(2,6-Dioxopiperidin-3-yl)-1,3-dioxoisoindolin-4-yl)oxy)acetamido)octanamido)ethyl)piperazin-1-yl)methyl)4-(4-methylpiperazin-1-yl)-[1,1′-biphenyl]-3-yl)-6-oxo-4-(trifluoromethyl)-1,6-dihydropyridine-3-carboxamide]
- Effectiveness in downregulating WDR5 protein levels relative to other degraders (WDR5 [5]; [8]): slightly more effective than MS40 and 23
- WDR5 protein levels (WB) (WDR5 [5]; [8]): effectively downregulated WRD5 protein levels
- WDR5 protein levels (WB) (WDR5 [4]; [9]): effectively reduced the cellular WDR5 protein levels
- IKZF1 protein levels (WB) (IKZF1; [8]): completely ineffective in degrading neo-substrate IKZF1
- LIMD1 protein levels (WB) (LIMD1): completely ineffective in degrading neo-substrate IKZF1, and protein LIMD1

Compound: CN1CCN(c2ccc(-c3cccc(CN4CCN(CCNC(=O)CCCCCCCNC(=O)COc5cccc6c5C(=O)N(C5CCC(=O)N(C)C5=O)C6=O)CC4)c3)cc2NC(=O)c2c[nH]c(=O)cc2C(F)(F)F)CC1 (centres unmarked) [Compound 22, N-(3′-((4-(2-(8-(2-((2-(1-Methyl-2,6-dioxopiperidin-3-yl)-1,3-dioxoisoindolin-4-yl)oxy)acetamido)octanamido)ethyl)piperazin-1-yl)methyl)-4-(4-methylpiperazin-1-yl)-[1,1′-biphenyl]-3-yl)-6-oxo-4-(trifluoromethyl)-1,6-dihydropyridine-3-carboxamide]
- WDR5 protein levels (WB) (WDR5 [5]; [8]): did not have an effect on the protein levels of WDR5, IKZF1, and LIMD1
- IKZF1 protein levels (WB) (IKZF1; [8]): did not have an effect on the protein levels of WDR5, IKZF1, and LIMD1
- LIMD1 protein levels (WB) (LIMD1): did not have an effect on the protein levels of WDR5, IKZF1, and LIMD1

Compound: CN1CCN(c2ccc(-c3cccc(CN4CCN(CCNC(=O)CCCCNC(=O)COc5cccc6c5C(=O)N(C5CCC(=O)NC5=O)C6=O)CC4)c3)cc2NC(=O)c2c[nH]c(=O)cc2C(F)(F)F)CC1 (centres unmarked) [Compound 23, N-(3′-((4-(2-(5-(2-((2-(2,6-Dioxopiperidin-3-yl)-1,3-dioxoisoindolin-4-yl)oxy)acetamido)pentanamido)ethyl)piperazin-1-yl)methyl)-4-(4-methylpiperazin-1-yl)-[1,1′-biphenyl]-3-yl)-6-oxo-4-(trifluoromethyl)-1,6-dihydropyridine-3-carboxamide]
- WDR5 protein levels (WB) (WDR5 [5]; [8]): to a less extent effectively downregulated WRD5 protein levels
- IKZF1 protein levels (WB) (IKZF1; [8]): completely ineffective in degrading neo-substrate IKZF1
- LIMD1 protein levels (WB) (LIMD1): completely ineffective in degrading neo-substrate IKZF1, and protein LIMD1

Compound: CN1CCN(c2ccc(-c3cccc(CN4CCN(CCNC(=O)CCCCNC(=O)COc5cccc6c5C(=O)N(C5CCC(=O)N(C)C5=O)C6=O)CC4)c3)cc2NC(=O)c2c[nH]c(=O)cc2C(F)(F)F)CC1 (centres unmarked) [Compound 24, N-(3′-((4-(2-(5-(2-((2-(1-Methyl-2,6-dioxopiperidin-3-yl)-1,3-dioxoisoindolin-4-yl)oxy)acetamido)pentanamido)ethyl)piperazin-1-yl)methyl)-4-(4-methylpiperazin-1-yl)-[1,1′-biphenyl]-3-yl)-6-oxo-4-(trifluoromethyl)-1,6-dihydropyridine-3-carboxamide]
- WDR5 protein levels (WB) (WDR5 [5]; [8]): did not have an effect on the protein levels of WDR5, IKZF1, and LIMD1
- IKZF1 protein levels (WB) (IKZF1; [8]): did not have an effect on the protein levels of WDR5, IKZF1, and LIMD1
- LIMD1 protein levels (WB) (LIMD1): did not have an effect on the protein levels of WDR5, IKZF1, and LIMD1

Compound: C[C@@H]1CN(c2ccc(-c3cc(C(=O)NCCCCCCCNC(=O)COc4cccc5c4C(=O)N(C4CCC(=O)NC4=O)C5=O)ccc3F)cc2NC(=O)c2c[nH]c(=O)cc2C(F)(F)F)C[C@H](C)N1C (stereo partly drawn) [Compound 25, N-(5′-((7-(2-((2-(2,6-Dioxopiperidin-3-yl)-1,3-dioxoisoindolin-4-yl)oxy)acetamido)heptyl)carbamoyl)-2′-fluoro-4-((3S,5R)-3,4,5-trimethylpiperazin-1-yl)-[1,1′-biphenyl]-3-yl)-6-oxo-4-(trifluoromethyl)-1,6-dihydropyridine-3-carboxamide]
- WDR5 protein levels (WB) (WDR5 [4]; [9]): effectively reduced the cellular WDR5 protein levels
- IKZF1 protein levels (WB) (IKZF1; [10]): had no effect on IKZF1 protein levels

Compound: C[C@@H]1CN(c2ccc(-c3cc(C(=O)NCCCCCCCNC(=O)COc4cccc5c4C(=O)N(C4CCC(=O)N(C)C4=O)C5=O)ccc3F)cc2NC(=O)c2c[nH]c(=O)cc2C(F)(F)F)C[C@H](C)N1C (stereo partly drawn) [Compound 26, N-(2′-Fluoro-5′-((7-(2-((2-(1-methyl-2,6-dioxopiperidin-3-yl)-1,3-dioxoisoindolin-4-yl)oxy)acetamido)heptyl)carbamoyl)-4-((3S,5R)-3,4,5-trimethylpiperazin-1-yl)-[1,1′-biphenyl]-3-yl)-6-oxo-4-(trifluoromethyl)-1,6-dihydropyridine-3-carboxamide]
- WDR5 protein levels (WB) (WDR5 [5]; indicated concentrations, 18 h (Figures 5B and S1)): did not affect the protein levels of WDR5 and IKZF1
- IKZF1 protein levels (WB) (IKZF1; [10]): did not affect the protein levels of WDR5 and IKZF1

Compound: Cc1ncsc1-c1ccc(CNC(=O)[C@H]2C[C@H](O)CN2C(=O)[C@@H](NC(=O)CNC(=O)c2ccc(F)c(-c3ccc(N4C[C@@H](C)N(C)[C@@H](C)C4)c(NC(=O)c4c[nH]c(=O)cc4C(F)(F)F)c3)c2)C(C)(C)C)cc1 [Compound 27, N-(2′-Fluoro-5′-((2-(((S)-1-((2R,4S)-4-hydroxy-2-((4-(4-methylthiazol-5-yl)benzyl)carbamoyl)pyrrolidin-1-yl)-3,3-dimethyl-1-oxobutan-2-yl)amino)-2-oxoethyl)carbamoyl)-4-((3S,5R)-3,4,5-trimethylpiperazin-1-yl)-[1,1′-biphenyl]-3-yl)-6-oxo-4-(trifluoromethyl)-1,6-dihydropyridine-3-carboxamide]
- KD to VCB (ITC) (VCB E3 ligase complex; mean ± SD, three independent experiments): did not display any noticeable binding to VCB
- Kd (WDR5 [6]): 106 ± 43 nM
- WDR5 degradation (WB) (WDR5 [2]): unable to degrade WDR5 in all tested pancreatic cancer cells
- Antiproliferative activity ([3]; PDAC cells, 6 day treatment): lack of antiproliferative activity

Compound: Cc1ncsc1-c1ccc([C@H](C)NC(=O)[C@@H]2C[C@@H](O)CN2C(=O)[C@@H](NC(=O)CNC(=O)c2ccc(F)c(-c3ccc(N4C[C@@H](C)N(C)[C@@H](C)C4)c(NC(=O)c4c[nH]c(=O)cc4C(F)(F)F)c3)c2)C(C)(C)C)cc1 [MS67]
- Degradation of WDR5 K296R mutant (WDR5 K296R): resistant to the MS67 treatment

Compound: CN1CCN(c2ccc(-c3cccc(CN4CCOCC4)c3)cc2NC(=O)c2c[nH]c(=O)cc2C(F)(F)F)CC1 [OICR-9429]
- Antiproliferative activity [7]: lack of antiproliferative activity
